Measurements: paper PMC5609037, “Selective inhibition of PfA-M1, over PfA-M17, by an amino-benzosuberone derivative blocks malaria parasites development in vitro and in vivo” (Malaria Journal, 2017)

Legend:
[1] = biological target: T1, PfA-M17 (P. falciparum leucyl aminopeptidase) (Plasmodium falciparum, UniProt Q8IL11); experiment: Leu-pNA hydrolysis at […] nm, Ki by Dixon plots; format: biochemical
T1 construct: gene LAP; residues 84–605, N-terminal hexahistidine tag, recombinant from E. coli
T1 sequence (Q8IL11 84-605): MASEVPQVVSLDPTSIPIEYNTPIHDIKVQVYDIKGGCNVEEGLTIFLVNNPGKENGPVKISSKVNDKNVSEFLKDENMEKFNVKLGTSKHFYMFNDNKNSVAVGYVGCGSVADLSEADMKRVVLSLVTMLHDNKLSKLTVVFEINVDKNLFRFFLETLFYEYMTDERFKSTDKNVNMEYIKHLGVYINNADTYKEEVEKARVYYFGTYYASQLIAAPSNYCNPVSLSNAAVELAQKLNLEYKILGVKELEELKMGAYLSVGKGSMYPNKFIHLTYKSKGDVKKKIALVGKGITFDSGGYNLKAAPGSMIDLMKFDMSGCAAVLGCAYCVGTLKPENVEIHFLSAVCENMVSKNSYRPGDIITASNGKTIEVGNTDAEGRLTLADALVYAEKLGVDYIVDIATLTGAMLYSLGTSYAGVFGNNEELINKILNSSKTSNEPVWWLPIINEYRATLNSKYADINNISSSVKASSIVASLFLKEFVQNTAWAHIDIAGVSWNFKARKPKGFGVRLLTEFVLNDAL

[2] = biological target: T2, PfA-M1 (P. falciparum alanyl aminopeptidase, M1 family aminopeptidase) (Plasmodium falciparum, UniProt O96935); experiment: Ala-pNA hydrolysis at […] nm, Ki by Dixon plots; format: biochemical
T2 construct: gene M1AAP; residues 192–1085, N-terminal hexahistidine tag, recombinant from E. coli
T2 sequence (O96935 192-1085): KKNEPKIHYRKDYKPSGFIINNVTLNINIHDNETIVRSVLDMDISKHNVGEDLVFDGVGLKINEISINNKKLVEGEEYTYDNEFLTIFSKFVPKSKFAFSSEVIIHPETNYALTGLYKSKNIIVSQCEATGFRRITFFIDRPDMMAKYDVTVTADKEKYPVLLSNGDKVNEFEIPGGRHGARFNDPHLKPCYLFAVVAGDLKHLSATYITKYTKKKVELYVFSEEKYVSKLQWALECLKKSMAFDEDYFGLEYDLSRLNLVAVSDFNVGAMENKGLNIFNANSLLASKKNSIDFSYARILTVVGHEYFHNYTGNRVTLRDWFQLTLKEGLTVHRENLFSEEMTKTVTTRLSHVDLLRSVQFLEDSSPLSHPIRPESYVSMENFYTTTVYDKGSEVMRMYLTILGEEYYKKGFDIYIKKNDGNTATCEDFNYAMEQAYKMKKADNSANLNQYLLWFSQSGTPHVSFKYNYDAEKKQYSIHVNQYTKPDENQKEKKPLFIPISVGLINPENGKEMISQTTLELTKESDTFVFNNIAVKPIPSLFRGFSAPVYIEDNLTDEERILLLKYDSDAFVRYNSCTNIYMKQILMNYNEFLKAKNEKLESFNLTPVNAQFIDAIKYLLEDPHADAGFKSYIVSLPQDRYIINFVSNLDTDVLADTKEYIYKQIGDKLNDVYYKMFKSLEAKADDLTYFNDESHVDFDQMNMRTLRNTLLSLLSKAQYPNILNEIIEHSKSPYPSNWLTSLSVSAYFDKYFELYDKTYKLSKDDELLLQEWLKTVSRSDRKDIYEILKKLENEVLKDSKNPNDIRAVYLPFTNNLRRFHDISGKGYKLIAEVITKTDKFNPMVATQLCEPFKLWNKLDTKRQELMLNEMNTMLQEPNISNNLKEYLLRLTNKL

## CC(C)C[C@H](NC(=O)[C@@H](O)[C@H](N)Cc1ccccc1)C(=O)O [bestatin]
[1]
  Ki: 0.4 µM
[2]
  Ki: 0.1 µM
